Reference: patent publication US9067898B1, “Isothiazole derivatives as GPR120 agonists for the treatment of type II diabetes” (Janssen Pharmaceutica NV, priority 2014, dated 2015)

What was measured:
[1] = molecular target: T1, short form of the GPR120 receptor (GPR120S) (Homo sapiens, UniProt Q5NUL3); experiment: Human GPR120 DiscoveRx PathHunter Beta-Arrestin assay, Procedure β-arrestin B; type: cell-based; details: PathHunter CHO-K1 GPR120S β-Arrestin cell line, 5000 cells/well, read-out: hGPR120 β-arrestin B EC50
T1 construct: host or cells: PathHunter CHO-K1 GPR120S β-Arrestin Cell Line
Method in brief: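 PathHunter CHO-K1 β-arrestin cells expressed long-form GPR120 (Procedure A, 3000 cells/well) or short-form GPR120 (Procedure B, 5000 cells/well). Compounds were serially diluted from 25 µM and incubated 90 min at 37 °C in HBSS/20 mM HEPES/0.1% BSA, pH 7.4. Luminescence was read after 60 min detection at RT; EC50 comes from % activity versus positive control, Hill slope fixed at 1.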

Human GPR120 short form = molecular target: T2, Human GPR120 short form (Homo sapiens, UniProt Q5NUL3); experiment: Human GPR120 calcium flux assay (FLIPR), Procedure Calcium B; type: cell-based; details: HEK-293 cells expressing human GPR120 short form, 4200 cells/well; read-out: GPR120 Ca2+ Assay B EC50
T2 construct: expressed in transfected cells
T2 sequence (Q5NUL3 1-361): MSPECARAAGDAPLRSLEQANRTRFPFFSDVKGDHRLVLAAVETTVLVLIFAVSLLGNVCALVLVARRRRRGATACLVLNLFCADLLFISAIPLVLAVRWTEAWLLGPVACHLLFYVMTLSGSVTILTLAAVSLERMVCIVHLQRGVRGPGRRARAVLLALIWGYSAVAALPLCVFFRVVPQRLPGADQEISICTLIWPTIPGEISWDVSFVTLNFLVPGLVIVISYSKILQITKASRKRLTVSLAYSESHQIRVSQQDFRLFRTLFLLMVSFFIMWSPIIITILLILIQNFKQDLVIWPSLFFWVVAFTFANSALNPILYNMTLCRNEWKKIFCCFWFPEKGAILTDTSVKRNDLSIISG
Excerpt: This in vitro assay serves to assess test compound agonist activity against the short splice variant (SVS with Accession number NM_001195755.1 confirmed by sequencing data) of the GPR120 receptor. The Human Short splice variant #2 (NM_001195755.1) is missing an in-frame coding exon compared to variant 1 (the Human Long splice variant NM_181745.3), resulting in a shorter isoform (GPR120-S) lacking a 16 aa protein segment compared to isoform GPR120-L. The assay platform utilizes HEK-293 cells stably transfected to express the Human GPR120 short form. These cells are first loaded with the Ca^+2 sensitive dye, Fluo-4 NW. Upon stimulation, intracellular released Ca^+2 can bind to the dye and alter its fluorescence intensity. This increase in fluorescence signal, and thus the flux in intracellular [Ca^2+], is detected and quantitated by fluorescence imaging using a FLIPR reader. The effect of the agonist is measured as a function of concentration and used to calculate an EC50 based upon a response curve.
In this procedure 4200 cells/well were employed.
A Human GPR120 clone (Genbank accession number NM_001195755.1) was placed into the pcDNA3.1 mammalian expression vector carrying the neomycin resistance gene. A stable mammalian cell was generated by placing the above clone into a HEK293 background. Clonal cells responding to long chain fatty acids had expression levels of GPR120 confirmed by RT-qPCR. Human HEK-GPR120 cells were cultured in Dulbecco's Modified Eagle's Medium (DMEM)/F12 medium supplemented with 10% fetal bovine serum (FBS), 1% L-Glutamine and 1% penicillin/streptomycin and 0.5 mg/ml G-418. Cells were split 2 times a week to keep the cells in the log-phase growth.
In preparation for the assay, HEK cells stably transfected with Human GPR120 (2.5K cells per well in 25 uL growth medium) were seeded into 384-well plates and then incubated overnight (37° C., 5% CO2). The next day, the media was changed to 20 μL assay buffer and the cell starved for 1 h at 37° C. The dye loading solution (2× dye) was prepared using 10 mL assay buffer, 100 μL of 250 mM probenecid, 1 bottle of Component A, and 20 μl of dye in DMSO. Twenty μL of the 2× dye loading buffer was then added to each well. The plates were incubated at 37° C. for 30 min, then at room temperature for an additional 15 minutes, before performing the assay on FLIPR. Test compounds were prepared in assay buffer (2 uL of cpd+198 uL assay buffer, final DMSO in assay plate is 0.2%) at the desired concentration, more particularly at 100, 50, 25, 12.5, 6.25, 3.125, 1.562, 0.781, 0.391, 0.195, 0.098, 0.049, 0.024 and 0.012 μM.
The assay was performed on a FLIPR plate reader using the following parameters. Baseline was read for 10 seconds at 1 sec intervals. The program was set to transfer 10 μL of ligand from compound plate to cell plate after baseline reading. Aspiration was executed at: 10 μL/sec speed, 4.6 μL height; Dispensing was executed at: 30 μL/sec speed, 45 μL height. After compound addition, each well was read for 300 sec, with measurements collected at 1 sec intervals.
The kinetic data from the FLIPR was based upon a 5 minute window for data collection. The fluorescence of each sample well was used for individual calculations of a normalized RFU value, which was defined as maximum response minus the minimum response. The normalized fluorescence reading (RFU) was calculated as follows: RFU=Fmax−Fmin The data were fitted to a sigmoidal dose-response curve with a variable Hill slope (<2) using nonlinear regression with GraphPad Prism 5.0 to calculate the EC50 values. The Fitting Equation was: Y=Bottom+(Top−Bottom)/(1+10^((Log EC50−X)*HillSlope)), where X is the log of the concentration and Y is the response.

T1 sequence (P32121 whole entry partner, one chain of several): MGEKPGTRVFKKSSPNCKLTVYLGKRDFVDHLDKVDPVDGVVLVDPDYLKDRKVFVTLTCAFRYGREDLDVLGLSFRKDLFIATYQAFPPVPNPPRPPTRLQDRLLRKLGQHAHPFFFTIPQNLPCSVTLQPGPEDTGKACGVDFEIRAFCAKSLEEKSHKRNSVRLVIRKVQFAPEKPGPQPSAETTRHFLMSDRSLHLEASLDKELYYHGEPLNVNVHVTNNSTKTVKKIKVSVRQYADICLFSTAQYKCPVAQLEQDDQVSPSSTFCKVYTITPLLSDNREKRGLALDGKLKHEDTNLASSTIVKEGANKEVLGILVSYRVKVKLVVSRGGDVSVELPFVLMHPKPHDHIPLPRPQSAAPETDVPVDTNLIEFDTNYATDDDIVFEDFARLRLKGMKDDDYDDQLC

Row | SMILES | EC50 [1] [nM] | EC50 (Human GPR120 short form) [nM]
1 | O=C(O)CCc1cc(F)c(OCc2c(-c3ccns3)nsc2C(F)(F)F)c(F)c1 [Cpd 272, 3-(3,5-Difluoro-4-{[5-(trifluoromethyl)-3,5′-biisothiazol-4-yl]methoxy}phenyl)propanoic acid] | 750 | 573
2 | Cc1c(CCC(=O)O)ccc(OCc2c(-c3cnc(Cl)s3)nsc2C(F)(F)F)c1C [Cpd 269, 3-(4-{[3-(2-Chloro-1,3-thiazol-5-yl)-5-(trifluoromethyl)isothiazol-4-yl]methoxy}-2,3-dimethylphenyl)propanoic acid] | 676 | 194

Next, values leading:

Row | EC50 [1] [nM] | EC50 (Human GPR120 short form) [nM] | SMILES
3 | 80 | 139 | OCCCc1cc(F)c(OCc2c(-c3ccc(Cl)cc3F)nsc2C(F)(F)F)c(F)c1 [Cpd 262, 3-(4-{[3-(4-Chloro-2-fluorophenyl)-5-(trifluoromethyl)isothiazol-4-yl]methoxy}-3,5-difluorophenyl)propan-1-ol]
4 | 122 | 200 | Cc1cc(OCc2c(-c3ccc(Cl)cc3)nsc2C(F)(F)F)c(F)cc1CCCO [Cpd 63, 3-(4-((3-(4-chlorophenyl)-5-(trifluoromethyl)isothiazol-4-yl)methoxy)-5-fluoro-2-methylphenyl)propan-1-61]
5 | 527 | 248 | CC(Cc1cc(F)c(OCc2c(-c3ncc(Cl)cc3F)nsc2C(F)(F)F)c(F)c1)C(=O)O (stereo not shown) [Cpd 265, 3-(4-{[3-(5-Chloro-3-fluoropyridin-2-yl)-5-(trifluoromethyl)isothiazol-4-yl]methoxy}-3,5-difluorophenyl)-2-methylpropanoic acid]
